“And” between values parts separate entries of the source, which are not always exact repeats. Identical values can stand only once. Inconclusive results and toxic doses are left out.
Test system: BDF1 mice, P388 leukemia ip, median survival T/C
Assay: NCI In Vivo Anticancer Drug Screen. Data for tumor model P388 Leukemia (intraperitoneal) in B6D2F1 (BDF1) mice
Conditions: endpoint: median survival time, higher = longer survival
Summary of the method: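 T/C = treated-group survival ÷ vehicle-control survival; tumour transplanted into mice before dosing.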

[1] = dose: 50.0 mg/kg/injection, schedule: Q01DX009 (ip), vehicle: saline with Tween-80
[2] = dose: 100.0 mg/kg/injection, schedule: Q01DX009 (ip), vehicle: saline with Tween-80
[3] = dose: 3.13 mg/kg/injection, schedule: Q01DX009 (ip), vehicle: saline with Tween-80
[4] = dose: 100.0 mg/kg/injection, schedule: Q01DX009 (ip), vehicle: Klucel (hydroxypropylcellulose) (HPC)
[5] = dose: 200.0 mg/kg/injection, schedule: Q01DX009 (ip), vehicle: Klucel (hydroxypropylcellulose) (HPC)
[6] = dose: 200.0 mg/kg/injection, schedule: Q01DX009 (ip), vehicle: saline with Tween-80
[7] = dose: 12.5 mg/kg/injection, schedule: Q01DX009 (ip), vehicle: saline with Tween-80
[8] = dose: 25.0 mg/kg/injection, schedule: Q01DX009 (ip), vehicle: saline with Tween-80
[9] = dose: 3.12 mg/kg/injection, schedule: Q01DX009 (ip), vehicle: saline
[10] = dose: 6.25 mg/kg/injection, schedule: Q01DX009 (ip), vehicle: saline
[11] = dose: 12.5 mg/kg/injection, schedule: Q04DX003 (ip), vehicle: saline
[12] = dose: 12.5 mg/kg/injection, schedule: Q01DX009 (ip), vehicle: saline
[13] = dose: 25.0 mg/kg/injection, schedule: Q01DX009 (ip), vehicle: saline
[14] = dose: 50.0 mg/kg/injection, schedule: Q01DX009 (ip), vehicle: saline
[15] = dose: 50.0 mg/kg/injection, schedule: Q04DX003 (ip), vehicle: saline
[16] = dose: 100.0 mg/kg/injection, schedule: Q04DX003 (ip), vehicle: saline
[17] = dose: 100.0 mg/kg/injection, schedule: Q04DX003 (ip), vehicle: saline with Tween-80
[18] = dose: 200.0 mg/kg/injection, schedule: Q04DX003 (ip), vehicle: saline with Tween-80
[19] = dose: 400.0 mg/kg/injection, schedule: Q04DX003 (ip), vehicle: saline with Tween-80

With `Sc1ccc(Nc2c3ccccc3nc3ccccc23)cc1` the T/C [1] was 102 % of control and 108 % of control and the T/C [2] was 100 % of control and 118 % of control.
For `CCSc1ncnc2nc[nH]c12`, the T/C (dose: 100.0 mg/kg/injection, schedule: Q04DX003 (ip), vehicle: Klucel (hydroxypropylcellulose) (HPC)) was 104 % of control and the T/C (dose: 200.0 mg/kg/injection, schedule: Q04DX003 (ip), vehicle: Klucel (hydroxypropylcellulose) (HPC)) was 109 % of control.
With `CCC[CH2][Sn]1([CH2]CCC)[O]OC(c2ccc(C)cc2)[O]1` (configuration not stated) the T/C (dose: 0.38 mg/kg/injection, schedule: Q01DX009 (ip), vehicle: saline with Tween-80) was 114 % of control, the T/C (dose: 1.5 mg/kg/injection, schedule: Q01DX009 (ip), vehicle: saline with Tween-80) was 117 % of control and the T/C [3] was 123 % of control. The T/C (dose: 5.3 mg/kg/injection, schedule: Q01DX009 (ip), vehicle: saline with Tween-80) was 86 % of control.
For `COc1ccc(OC)c(NC(=O)Sc2c(Cl)c(Cl)nc(Cl)c2Cl)c1`, the T/C (dose: 25.0 mg/kg/injection, schedule: Q01DX009 (ip), vehicle: Klucel (hydroxypropylcellulose) (HPC)) was 123 % of control, the T/C [4] was 124 % of control and the T/C [5] was 123 % of control.
With `CNCc1c2c(O)c3c(O)c(C)c4c(c3c1O)C(=O)C(C)(O/C=C/C(OC)C(C)C(OC(C)=O)C(C)C(O)C(C)C(O)C(C)/C=C/C=C(/C)C(=O)N2)O4` (configuration not stated) the T/C [1] was 100 % of control, the T/C [2] was 89 % of control and the T/C [6] was 116 % of control.
In the case of `COc1ccc(OP2OCC(C)O2)cc1` (configuration not stated), the T/C [1] is reported as 103 % of control, the T/C [2] is reported as 102 % of control and the T/C [6] is reported as 102 % of control.
`CCCCCCCCCCC(C)c1ccc(S(=O)(=O)O)cc1` (configuration not stated) was tested, and the T/C [7] was 103 % of control, the T/C [8] was 110 % of control and the T/C (dose: 33.0 mg/kg/injection, schedule: Q01DX009 (ip), vehicle: saline with Tween-80) was 120 % of control. For the same molecule, the T/C [1] was 115 % of control and 116 % of control and 118 % of control, the T/C (dose: 75.0 mg/kg/injection, schedule: Q01DX009 (ip), vehicle: saline with Tween-80) was 110 % of control and the T/C [2] was 119 % of control.
For `CC1C[N+](C)(C)N=C1[O-]` (configuration not stated), the T/C (dose: 100.0 mg/kg/injection, schedule: Q01DX001 (ip), vehicle: saline) was 109 % of control, the T/C (dose: 200.0 mg/kg/injection, schedule: Q01DX001 (ip), vehicle: saline) was 90 % of control and the T/C (dose: 400.0 mg/kg/injection, schedule: Q01DX001 (ip), vehicle: saline) was 109 % of control.
For `NC(=S)N/N=C\c1ncnc2ccccc12`, the T/C (dose: 8.0 mg/kg/injection, schedule: Q01DX009 (ip), vehicle: saline with Tween-80) was 150 % of control, the T/C (dose: 12.0 mg/kg/injection, schedule: Q01DX009 (ip), vehicle: saline with Tween-80) was 150 % of control and the T/C (dose: 18.0 mg/kg/injection, schedule: Q01DX009 (ip), vehicle: saline with Tween-80) was 150 % of control.
`CC1C(=O)COCC1=O` was tested, and the T/C (dose: 100.0 mg/kg/injection, schedule: Q01DX001 (ip), vehicle: saline with Tween-80) was 102 % of control, the T/C (dose: 200.0 mg/kg/injection, schedule: Q01DX001 (ip), vehicle: saline with Tween-80) was 101 % of control and the T/C (dose: 400.0 mg/kg/injection, schedule: Q01DX001 (ip), vehicle: saline with Tween-80) was 98 % of control.
`NC12CC3CC(CC(C3)C1)C2` was tested, and the T/C (dose: 25.0 mg/kg/injection, schedule: Q01DX010 (ip), vehicle: saline) was 100 % of control, the T/C (dose: 50.0 mg/kg/injection, schedule: Q01DX010 (ip), vehicle: saline) was 100 % of control and the T/C (dose: 100.0 mg/kg/injection, schedule: Q01DX010 (ip), vehicle: saline) was 100 % of control.
For `Cc1cc2nc(CBr)c(CBr)nc2cc1C`, the T/C (dose: 1.56 mg/kg/injection, schedule: Q01DX009 (ip), vehicle: saline) was 120 % of control, the T/C [9] was 120 % of control and the T/C (dose: 3.12 mg/kg/injection, schedule: Q04DX003 (ip), vehicle: saline) was 95 % of control. The T/C [10] was 95 % of control, the T/C (dose: 6.25 mg/kg/injection, schedule: Q04DX003 (ip), vehicle: saline) was 100 % of control and the T/C (dose: 8.75 mg/kg/injection, schedule: Q01DX001 (ip), vehicle: Klucel (hydroxypropylcellulose) (HPC)) was 94 % of control. The T/C [11] was 90 % of control, the T/C (dose: 17.5 mg/kg/injection, schedule: Q01DX001 (ip), vehicle: Klucel (hydroxypropylcellulose) (HPC)) was 88 % of control and the T/C (dose: 18.0 mg/kg/injection, schedule: Q04DX003 (ip), vehicle: saline) was 90 % of control. For the same molecule, the T/C (dose: 35.0 mg/kg/injection, schedule: Q01DX001 (ip), vehicle: Klucel (hydroxypropylcellulose) (HPC)) was 88 % of control.
For `CS(=O)(=O)OCCN1CCC2(CC1)SSC1(CCN(CCOS(C)(=O)=O)CC1)S2`, the T/C [9] was 95 % of control and 96 % of control, the T/C [10] was 115 % of control and the T/C (dose: 7.5 mg/kg/injection, schedule: Q04DX003 (ip), vehicle: saline) was 122 % of control. The T/C (dose: 10.0 mg/kg/injection, schedule: Q01DX009 (ip), vehicle: saline) was 154 % of control, the T/C [12] was 109 % of control and 115 % of control and the T/C [11] was 122 % of control.
For `NS(=O)(=O)c1ccc(NC(=O)c2ccccc2C(=O)O)cc1`, the T/C [4] was 95 % of control, the T/C [5] was 100 % of control and the T/C (dose: 400.0 mg/kg/injection, schedule: Q01DX009 (ip), vehicle: Klucel (hydroxypropylcellulose) (HPC)) was 105 % of control.
For `COc1ccc(/C=C/[N+](=O)[O-])cc1O`, the T/C [10] was 106 % of control, the T/C [12] was 115 % of control and 121 % of control and the T/C [11] was 113 % of control. The T/C [13] was 111 % of control and 121 % of control, the T/C (dose: 25.0 mg/kg/injection, schedule: Q04DX003 (ip), vehicle: saline) was 113 % of control and the T/C [14] was 95 % of control and 123 % of control. The T/C [15] was 114 % of control and 122 % of control and the T/C [16] was 114 % of control and 122 % of control.
With `CCCCCCCCOc1cc2c(c(OC(C)=O)c1)-c1ccccc1CC2` the T/C [17] was 97 % of control, the T/C [18] was 99 % of control and the T/C [19] was 99 % of control.
`CCOP(=O)(OCC)OCCCN(CC)CC` was tested, and the T/C [13] was 118 % of control, the T/C [14] was 114 % of control and the T/C [15] was 100 % of control. For the same molecule, the T/C (dose: 100.0 mg/kg/injection, schedule: Q01DX009 (ip), vehicle: saline) was 100 % of control, the T/C [16] was 107 % of control and the T/C (dose: 200.0 mg/kg/injection, schedule: Q01DX009 (ip), vehicle: saline) was 89 % of control. The T/C (dose: 200.0 mg/kg/injection, schedule: Q04DX003 (ip), vehicle: saline) was 110 % of control and the T/C (dose: 300.0 mg/kg/injection, schedule: Q04DX003 (ip), vehicle: saline) was 105 % of control.
For `O=C1C=CC(=O)c2cc(Cl)c(Cl)cc21`, the T/C [3] was 118 % of control and the T/C [7] was 86 % of control.
In the case of `NCC(=O)O.[Cl][Ga]([Cl])[Cl]`, the T/C [13] is reported as 120 % of control.
For `CC(=O)OCc1cc(=O)n(C)c2c3c4c(cc12)c(C)cc(=O)n4CO3`, the T/C (dose: 100.0 mg/kg/injection, schedule: Q01DX001 (ip), vehicle: Klucel (hydroxypropylcellulose) (HPC)) was 120 % of control.
For `CCOC(=O)c1cccc2cccc(C(=O)OCC)c12`, the T/C [8] was 106 % of control, the T/C [1] was 92 % of control and the T/C [2] was 114 % of control. The T/C [6] was 100 % of control.
For `Cc1ccc(NC(=O)c2ccc(C)c([N+](=O)[O-])c2)c(C)c1`, the T/C (dose: 100.0 mg/kg/injection, schedule: Q01DX008 (sc), vehicle: olive oil, sesame oil, peanut oil) was 87 % of control, the T/C (dose: 100.0 mg/kg/injection, schedule: Q04DX003 (sc), vehicle: olive oil, sesame oil, peanut oil) was 88 % of control and the T/C (dose: 200.0 mg/kg/injection, schedule: Q01DX008 (sc), vehicle: olive oil, sesame oil, peanut oil) was 100 % of control. For the same molecule, the T/C (dose: 200.0 mg/kg/injection, schedule: Q04DX003 (sc), vehicle: olive oil, sesame oil, peanut oil) was 88 % of control, the T/C (dose: 400.0 mg/kg/injection, schedule: Q01DX008 (sc), vehicle: olive oil, sesame oil, peanut oil) was 87 % of control and the T/C (dose: 400.0 mg/kg/injection, schedule: Q04DX003 (sc), vehicle: olive oil, sesame oil, peanut oil) was 92 % of control.
With `CC(C)(C)c1ccc(Sc2cccc3c2C(=O)c2c(Cl)cccc2C3=O)cc1` the T/C [17] was 90 % of control, the T/C [18] was 88 % of control and the T/C [19] was 92 % of control.
For `CC(=O)OCCC/C(=C/c1cc2ccccc2c2ccccc12)[N+](=O)[O-]`, the T/C [4] was 115 % of control and the T/C [5] was 120 % of control.
`CSc1nc(N)nc2nc[nH]c12` was tested, and the T/C [1] was 109 % of control and the T/C [2] was 104 % of control.
With `CS(=O)(=O)c1cnc2ccccc2n1` the T/C [8] was 97 % of control, the T/C [1] was 99 % of control and the T/C [2] was 90 % of control.

From PubChem BioAssay AID328 (DTP/NCI, 2004)
